Assay results from patent US9340590B2 (priority 2011, dated 2016).
Like-named read-outs stand apart in the source and are kept apart here. Positions of bridges follow the written chain, without caps; N, C: chain ends. Residues, ends and D or L forms follow the SMILES beside them.

What was measured:
Assay in all cases: cell-based
hNav1.7 [1] = biological target: T1, hNav1.7 (Homo sapiens, UniProt Q15858); type: cell-based
hNav1.5 [2] = biological target: T2, hNav1.5 (Homo sapiens, UniProt Q14524)
T2 sequence (Q14524 whole entry, looked up): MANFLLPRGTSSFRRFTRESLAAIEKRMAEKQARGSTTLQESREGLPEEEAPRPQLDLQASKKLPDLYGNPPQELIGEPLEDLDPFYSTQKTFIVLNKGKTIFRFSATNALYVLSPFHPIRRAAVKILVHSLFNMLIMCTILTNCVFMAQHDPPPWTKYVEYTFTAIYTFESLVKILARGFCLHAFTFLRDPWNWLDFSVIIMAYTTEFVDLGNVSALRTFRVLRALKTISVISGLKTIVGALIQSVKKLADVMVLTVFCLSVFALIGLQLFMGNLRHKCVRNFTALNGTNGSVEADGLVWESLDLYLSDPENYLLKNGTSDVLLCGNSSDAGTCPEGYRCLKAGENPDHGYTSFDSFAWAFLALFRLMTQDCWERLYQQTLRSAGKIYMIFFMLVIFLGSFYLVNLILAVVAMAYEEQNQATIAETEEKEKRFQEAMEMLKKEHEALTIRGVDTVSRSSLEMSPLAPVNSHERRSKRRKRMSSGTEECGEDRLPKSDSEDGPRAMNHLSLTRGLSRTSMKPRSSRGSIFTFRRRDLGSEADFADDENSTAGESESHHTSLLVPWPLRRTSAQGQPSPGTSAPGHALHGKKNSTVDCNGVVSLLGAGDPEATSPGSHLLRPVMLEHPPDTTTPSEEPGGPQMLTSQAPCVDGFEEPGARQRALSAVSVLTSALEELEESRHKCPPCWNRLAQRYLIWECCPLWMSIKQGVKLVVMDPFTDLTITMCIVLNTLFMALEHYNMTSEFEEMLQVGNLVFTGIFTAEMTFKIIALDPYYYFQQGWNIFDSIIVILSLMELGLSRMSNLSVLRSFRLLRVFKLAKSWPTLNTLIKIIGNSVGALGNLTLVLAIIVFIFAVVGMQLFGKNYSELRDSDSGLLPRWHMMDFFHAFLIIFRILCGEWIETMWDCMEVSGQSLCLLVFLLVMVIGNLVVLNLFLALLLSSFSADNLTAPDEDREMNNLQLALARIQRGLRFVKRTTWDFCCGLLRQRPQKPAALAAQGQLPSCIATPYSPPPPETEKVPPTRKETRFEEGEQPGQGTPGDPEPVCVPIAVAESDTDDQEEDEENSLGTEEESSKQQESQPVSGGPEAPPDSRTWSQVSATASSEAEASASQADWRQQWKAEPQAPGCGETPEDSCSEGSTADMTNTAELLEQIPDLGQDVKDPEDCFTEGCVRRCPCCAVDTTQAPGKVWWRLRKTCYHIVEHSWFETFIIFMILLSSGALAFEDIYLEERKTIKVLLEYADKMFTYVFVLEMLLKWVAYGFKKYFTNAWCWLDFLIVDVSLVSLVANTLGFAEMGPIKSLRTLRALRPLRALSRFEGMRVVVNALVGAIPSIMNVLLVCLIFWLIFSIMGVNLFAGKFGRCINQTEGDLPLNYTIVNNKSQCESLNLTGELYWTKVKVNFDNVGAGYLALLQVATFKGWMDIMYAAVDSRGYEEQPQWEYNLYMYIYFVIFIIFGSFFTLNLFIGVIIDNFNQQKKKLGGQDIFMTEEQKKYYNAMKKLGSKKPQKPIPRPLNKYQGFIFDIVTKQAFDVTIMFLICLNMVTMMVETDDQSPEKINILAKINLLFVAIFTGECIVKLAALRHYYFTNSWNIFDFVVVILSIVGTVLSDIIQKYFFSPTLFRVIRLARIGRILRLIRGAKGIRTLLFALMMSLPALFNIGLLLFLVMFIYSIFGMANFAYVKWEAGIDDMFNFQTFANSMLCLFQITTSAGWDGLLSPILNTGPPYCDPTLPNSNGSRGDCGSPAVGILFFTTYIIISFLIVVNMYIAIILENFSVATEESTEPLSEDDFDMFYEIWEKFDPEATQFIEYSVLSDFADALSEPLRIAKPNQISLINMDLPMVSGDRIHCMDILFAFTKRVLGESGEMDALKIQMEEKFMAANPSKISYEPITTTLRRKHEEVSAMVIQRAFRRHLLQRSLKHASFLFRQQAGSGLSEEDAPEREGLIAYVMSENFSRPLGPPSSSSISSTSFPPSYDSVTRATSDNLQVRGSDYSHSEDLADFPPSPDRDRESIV

hNav1.5 [3] = biological target: T2, hNav1.5; remark: listed apart in the source
hNav1.3 = hNav1.3 (Homo sapiens, UniProt Q9NY46); conditions: IonWorks Quattro, read-out: IWQ Use Nav1.3
hNav1.3, sequence (Q9NY46 whole entry, looked up): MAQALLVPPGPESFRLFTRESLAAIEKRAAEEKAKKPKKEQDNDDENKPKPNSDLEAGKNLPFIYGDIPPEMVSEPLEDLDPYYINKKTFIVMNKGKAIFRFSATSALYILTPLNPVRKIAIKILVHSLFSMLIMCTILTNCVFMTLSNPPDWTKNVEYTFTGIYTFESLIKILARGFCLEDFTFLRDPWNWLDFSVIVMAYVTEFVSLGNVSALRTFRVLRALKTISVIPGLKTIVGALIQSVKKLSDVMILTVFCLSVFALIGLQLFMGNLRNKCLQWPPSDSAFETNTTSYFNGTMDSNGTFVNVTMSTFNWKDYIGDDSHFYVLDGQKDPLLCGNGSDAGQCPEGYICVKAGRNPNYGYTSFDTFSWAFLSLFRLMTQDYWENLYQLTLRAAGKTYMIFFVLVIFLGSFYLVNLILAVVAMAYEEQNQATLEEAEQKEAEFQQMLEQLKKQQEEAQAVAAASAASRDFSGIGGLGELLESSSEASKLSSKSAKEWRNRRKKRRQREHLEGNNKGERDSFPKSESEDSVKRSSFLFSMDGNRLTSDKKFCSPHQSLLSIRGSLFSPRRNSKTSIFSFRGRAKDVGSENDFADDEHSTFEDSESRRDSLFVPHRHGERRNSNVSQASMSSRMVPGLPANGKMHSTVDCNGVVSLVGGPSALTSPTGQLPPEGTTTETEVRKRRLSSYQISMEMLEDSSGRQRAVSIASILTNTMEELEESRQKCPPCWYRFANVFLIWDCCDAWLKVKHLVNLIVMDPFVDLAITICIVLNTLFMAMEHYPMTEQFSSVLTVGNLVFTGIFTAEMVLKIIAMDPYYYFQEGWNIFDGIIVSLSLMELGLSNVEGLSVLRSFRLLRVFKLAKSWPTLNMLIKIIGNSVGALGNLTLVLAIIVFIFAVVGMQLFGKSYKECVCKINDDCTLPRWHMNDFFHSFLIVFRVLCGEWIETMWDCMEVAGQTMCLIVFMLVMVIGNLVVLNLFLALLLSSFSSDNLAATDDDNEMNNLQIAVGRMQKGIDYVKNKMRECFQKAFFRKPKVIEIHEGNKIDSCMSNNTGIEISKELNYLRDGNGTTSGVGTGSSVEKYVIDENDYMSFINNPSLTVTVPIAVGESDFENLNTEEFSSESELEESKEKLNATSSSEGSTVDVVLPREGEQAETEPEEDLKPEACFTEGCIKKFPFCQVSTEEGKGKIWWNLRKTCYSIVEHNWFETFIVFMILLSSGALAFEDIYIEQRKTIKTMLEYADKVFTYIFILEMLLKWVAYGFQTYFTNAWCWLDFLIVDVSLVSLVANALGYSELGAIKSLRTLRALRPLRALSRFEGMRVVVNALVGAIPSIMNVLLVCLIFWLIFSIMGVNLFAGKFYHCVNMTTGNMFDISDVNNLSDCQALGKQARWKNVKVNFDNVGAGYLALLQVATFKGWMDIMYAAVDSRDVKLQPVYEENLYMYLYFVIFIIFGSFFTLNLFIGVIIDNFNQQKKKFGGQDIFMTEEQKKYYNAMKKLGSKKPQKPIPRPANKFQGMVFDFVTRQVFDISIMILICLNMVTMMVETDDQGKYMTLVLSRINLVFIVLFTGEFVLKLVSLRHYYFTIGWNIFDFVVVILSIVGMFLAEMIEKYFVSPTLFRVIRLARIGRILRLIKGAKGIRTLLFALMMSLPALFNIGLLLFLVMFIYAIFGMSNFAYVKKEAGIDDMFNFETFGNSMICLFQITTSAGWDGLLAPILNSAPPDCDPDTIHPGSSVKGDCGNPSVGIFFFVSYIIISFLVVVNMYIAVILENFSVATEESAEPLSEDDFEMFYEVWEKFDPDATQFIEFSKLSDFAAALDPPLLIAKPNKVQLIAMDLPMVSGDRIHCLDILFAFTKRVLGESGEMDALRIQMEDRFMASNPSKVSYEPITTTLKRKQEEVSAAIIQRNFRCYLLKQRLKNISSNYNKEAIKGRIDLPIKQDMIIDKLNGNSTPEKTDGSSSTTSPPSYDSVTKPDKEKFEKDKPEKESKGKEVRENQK

hNav1.7 [4] = biological target: T1, hNav1.7; conditions: Nav1.7 Use IC50
[5] = IonWorks Quattro, clamped to −110 mV, depolarized to −10 mV, 5 min after compound, n=2, read-out: IWQ Use Nav1.7
[6] = clamped to −110 mV, depolarized to −10 mV, 5 min after compound, n=2
[7] = IonWorks Quattro, clamped to −110 mV, depolarized to −10 mV, 5 min after compound, n=2, read-out: IWQ Use Nav1.5

`CC[C@H](C)[C@@H]1NC(=O)[C@@H]2CSSC[C@@H]3NC(=O)[C@H](C(C)C)NC(=O)[C@H](CC(C)C)NC(=O)[C@H](CC(N)=O)NC(=O)[C@@H]4CCCN4C(=O)[C@H](CCCNC(=N)N)NC(=O)[C@H](CSSC[C@H](NC(=O)[C@@H](N)CC(=O)O)C(=O)N[C@@H](C)C(=O)NCC(=O)N[C@@H](Cc4ccccc4)C(=O)N[C@@H](CCSC)C(=O)N[C@@H](CCCNC(=N)N)C(=O)N[C@@H](CCCCN)C(=O)N2)NC(=O)[C@H](CSSC[C@@H](C(=O)N[C@@H](CCCCN)C(=O)N[C@@H](Cc2ccc(O)cc2)C(=O)N[C@H](C(=O)N[C@@H](Cc2ccccc2)C(N)=O)C(C)C)NC(=O)[C@H](Cc2c[nH]c4ccccc24)NC(=O)[C@H](CCCCN)NC(=O)[C@H](Cc2cnc[nH]2)NC(=O)[C@H]([C@@H](C)O)NC(=O)[C@H](CCCNC(=N)N)NC(=O)[C@H](CO)NC3=O)NC(=O)[C@H](CCCCN)NC(=O)[C@H](CC(=O)O)NC(=O)[C@H](CC(N)=O)NC(=O)[C@H](CC(=O)O)NC(=O)[C@@H]2CCCN2C1=O` [SEQ ID NO: 21] (H-DCAGFMRKCIPDNDKCCRPNLVCSRTHKWCKYVF-NH2; disulfide 2-17, 9-23, 16-30) was tested, and the IC50 (hNav1.7 [1]; [5]) was 510 nM, the IC50 (hNav1.5 [2]; IWQ Use Nav1.5) was 19000 nM and the IC50 (hNav1.5 [3]) was over 10000 nM. The IC50 (hNav1.3; [6]) was 100 nM and the IC50 (hNav1.7 [4]) was 12 nM.
Work on `CC[C@H](C)[C@@H]1NC(=O)[C@@H]2CSSC[C@@H]3NC(=O)[C@H](C(C)C)NC(=O)[C@H](CC(C)C)NC(=O)[C@H](CC(N)=O)NC(=O)[C@@H]4CCCN4C(=O)[C@H](CCCNC(=N)N)NC(=O)[C@H](CSSC[C@H](NC(=O)[C@H](CC(=O)O)NC(=O)[C@H](C)N)C(=O)N[C@@H](CC(C)C)C(=O)NCC(=O)N[C@@H](Cc4ccccc4)C(=O)N[C@@H](CCSC)C(=O)N[C@@H](CCCNC(=N)N)C(=O)N[C@@H](CCCCN)C(=O)N2)NC(=O)[C@H](CSSC[C@@H](C(=O)N[C@@H](CCCCN)C(=O)N[C@@H](Cc2ccc(O)cc2)C(=O)N[C@H](C(=O)N[C@@H](Cc2ccccc2)C(N)=O)C(C)C)NC(=O)[C@H](Cc2c[nH]c4ccccc24)NC(=O)[C@H](CCCCN)NC(=O)[C@H](Cc2c[nH]cn2)NC(=O)[C@H]([C@@H](C)O)NC(=O)[C@H](CCCNC(=N)N)NC(=O)[C@H](CO)NC3=O)NC(=O)[C@H](CCCCN)NC(=O)[C@H](CC(=O)O)NC(=O)[C@H](CC(N)=O)NC(=O)[C@H](CC(=O)O)NC(=O)[C@@H]2CCCN2C1=O` [SEQ ID NO: 100] yielded an IC50 (hNav1.7 [1]; read-out: IWQ Use Nav1.7) of 370 nM, an IC50 (hNav1.5 [2]; [7]) of 19600 nM and an IC50 (hNav1.5 [3]) of 10000 nM. The IC50 (hNav1.3; [6]) was 320 nM and the IC50 (hNav1.7 [4]) was 12 nM.
Compound `CC[C@H](C)[C@@H]1NC(=O)[C@@H]2CSSC[C@@H]3NC(=O)[C@H](C(C)C)NC(=O)[C@H](CC(C)C)NC(=O)[C@H](CC(N)=O)NC(=O)[C@@H]4CCCN4C(=O)[C@H](CCCNC(=N)N)NC(=O)[C@H](CSSC[C@H](NC(=O)[C@@H](N)CC(=O)O)C(=O)N[C@@H](CC(C)C)C(=O)NCC(=O)N[C@@H](Cc4ccccc4)C(=O)N[C@@H](Cc4c[nH]c5ccccc45)C(=O)N[C@@H](CCCNC(=N)N)C(=O)N[C@@H](CCCCN)C(=O)N2)NC(=O)[C@H](CSSC[C@@H](C(=O)N[C@@H](CCCCN)C(=O)N[C@@H](Cc2ccc(O)cc2)C(=O)N[C@H](C(=O)N[C@@H](Cc2ccccc2)C(N)=O)C(C)C)NC(=O)[C@H](Cc2c[nH]c4ccccc24)NC(=O)[C@H](CCCCN)NC(=O)[C@H](Cc2cnc[nH]2)NC(=O)[C@H]([C@@H](C)O)NC(=O)[C@H](CCCNC(=N)N)NC(=O)[C@H](CO)NC3=O)NC(=O)[C@H](CCCCN)NC(=O)[C@H](CC(=O)O)NC(=O)[C@H](CC(N)=O)NC(=O)[C@H](CC(=O)O)NC(=O)[C@@H]2CCCN2C1=O` [SEQ ID NO: 170] (H-DCLGFWRKCIPDNDKCCRPNLVCSRTHKWCKYVF-NH2; disulfide 2-17, 9-23, 16-30) has an IC50 (hNav1.7 [1]) of 13 nM, an IC50 (hNav1.5 [2]; [7]) of 3580 nM and an IC50 (hNav1.5 [3]) of 3670 nM. For the same compound, the IC50 (hNav1.3; [6]) was 2 nM and the IC50 (hNav1.7 [4]) was 22 nM.
With `CC[C@H](C)[C@@H]1NC(=O)[C@@H]2CSSC[C@@H]3NC(=O)[C@H](C(C)C)NC(=O)[C@H](CC(C)C)NC(=O)[C@H](CC(N)=O)NC(=O)[C@@H]4CCCN4C(=O)[C@H](CCCNC(=N)N)NC(=O)[C@H](CSSC[C@H](NC(=O)[C@@H](N)CC(=O)O)C(=O)N[C@@H](CC(C)C)C(=O)NCC(=O)N[C@@H](Cc4ccccc4)C(=O)N4CCC[C@H]4C(=O)N[C@@H](CCCNC(=N)N)C(=O)N[C@@H](CCCCN)C(=O)N2)NC(=O)[C@H](CSSC[C@@H](C(=O)N[C@@H](CCCCN)C(=O)N[C@@H](Cc2ccc(O)cc2)C(=O)N[C@H](C(=O)N[C@@H](Cc2ccccc2)C(N)=O)C(C)C)NC(=O)[C@H](Cc2c[nH]c4ccccc24)NC(=O)[C@H](CCCCN)NC(=O)[C@H](Cc2c[nH]cn2)NC(=O)[C@H]([C@@H](C)O)NC(=O)[C@H](CCCNC(=N)N)NC(=O)[C@H](CO)NC3=O)NC(=O)[C@H](CCCCN)NC(=O)[C@H](CC(=O)O)NC(=O)[C@H](CC(N)=O)NC(=O)[C@H](CC(=O)O)NC(=O)[C@@H]2CCCN2C1=O` [SEQ ID NO: 283] (H-DCLGFPRKCIPDNDKCCRPNLVCSRTHKWCKYVF-NH2; disulfide 2-17, 9-23, 16-30) the IC50 (hNav1.7 [1]; [5]) was 790 nM, the IC50 (hNav1.5 [2]; [7]) was 10000 nM and the IC50 (hNav1.5 [3]) was 10000 nM. The IC50 (hNav1.3; [6]) was 760 nM and the IC50 (hNav1.7 [4]) was 42 nM.
Compound `CC[C@H](C)[C@@H]1NC(=O)[C@@H]2CSSC[C@@H]3NC(=O)[C@H](C(C)C)NC(=O)[C@H](CC(C)C)NC(=O)[C@H](CC(N)=O)NC(=O)[C@@H]4CCCN4C(=O)[C@H](CCCNC(=N)N)NC(=O)[C@H](CSSC[C@H](NC(=O)[C@@H](N)CC(=O)O)C(=O)N[C@@H](CC(C)C)C(=O)NCC(=O)N[C@@H](Cc4ccccc4)C(=O)N[C@@H](Cc4ccc(O)cc4)C(=O)N[C@@H](CCCNC(=N)N)C(=O)N[C@@H](CCCCN)C(=O)N2)NC(=O)[C@H](CSSC[C@@H](C(=O)N[C@@H](CCCCN)C(=O)N[C@@H](Cc2ccc(O)cc2)C(=O)N[C@H](C(=O)N[C@@H](Cc2ccccc2)C(N)=O)C(C)C)NC(=O)[C@H](Cc2c[nH]c4ccccc24)NC(=O)[C@H](CCCCN)NC(=O)[C@H](Cc2cnc[nH]2)NC(=O)[C@H]([C@@H](C)O)NC(=O)[C@H](CCCNC(=N)N)NC(=O)[C@H](CO)NC3=O)NC(=O)[C@H](CCCCN)NC(=O)[C@H](CC(=O)O)NC(=O)[C@H](CC(N)=O)NC(=O)[C@H](CC(=O)O)NC(=O)[C@@H]2CCCN2C1=O` [SEQ ID NO: 286] (H-DCLGFYRKCIPDNDKCCRPNLVCSRTHKWCKYVF-NH2; disulfide 2-17, 9-23, 16-30) has an IC50 (hNav1.7 [1]) of 970 nM, an IC50 (hNav1.5 [2]; IWQ Use Nav1.5) of 6380 nM and an IC50 (hNav1.5 [3]) of 10000 nM. The IC50 (hNav1.3; [6]) was 520 nM and the IC50 (hNav1.7 [4]) was 69 nM.
`CC[C@H](C)[C@@H]1NC(=O)[C@@H]2CSSC[C@@H]3NC(=O)[C@H](C(C)C)NC(=O)[C@H](CC(C)C)NC(=O)[C@H](CC(N)=O)NC(=O)[C@@H]4CCCN4C(=O)[C@H](CCCNC(=N)N)NC(=O)[C@H](CSSC[C@H](NC(=O)[C@@H](N)CC(=O)O)C(=O)N[C@@H](CC(C)C)C(=O)NCC(=O)N[C@@H](Cc4ccccc4)C(=O)N[C@@H](Cc4ccccn4)C(=O)N[C@@H](CCCNC(=N)N)C(=O)N[C@@H](CCCCN)C(=O)N2)NC(=O)[C@H](CSSC[C@@H](C(=O)N[C@@H](CCCCN)C(=O)N[C@@H](Cc2ccc(O)cc2)C(=O)N[C@H](C(=O)N[C@@H](Cc2ccccc2)C(N)=O)C(C)C)NC(=O)[C@H](Cc2c[nH]c4ccccc24)NC(=O)[C@H](CCCCN)NC(=O)[C@H](Cc2c[nH]cn2)NC(=O)[C@H]([C@@H](C)O)NC(=O)[C@H](CCCNC(=N)N)NC(=O)[C@H](CO)NC3=O)NC(=O)[C@H](CCCCN)NC(=O)[C@H](CC(=O)O)NC(=O)[C@H](CC(N)=O)NC(=O)[C@H](CC(=O)O)NC(=O)[C@@H]2CCCN2C1=O` [SEQ ID NO: 294] showed an IC50 (hNav1.7 [1]; [5]) of 370 nM, an IC50 (hNav1.5 [2]; [7]) of 9110 nM and an IC50 (hNav1.5 [3]) of 10000 nM. The IC50 (hNav1.3; [6]) was 90 nM and the IC50 (hNav1.7 [4]) was 42 nM.
Compound `CC[C@H](C)[C@@H]1NC(=O)[C@@H]2CSSC[C@@H]3NC(=O)[C@H](C(C)C)NC(=O)[C@H](CC(C)C)NC(=O)[C@H](CC(N)=O)NC(=O)[C@@H]4CCCN4C(=O)[C@H](CCCNC(=N)N)NC(=O)[C@H](CSSC[C@H](NC(=O)[C@@H](N)CC(=O)O)C(=O)N[C@@H](CC(C)C)C(=O)NCC(=O)N[C@@H](Cc4ccccc4)C(=O)N[C@@H](CCSC)C(=O)N[C@@H](CCC(=O)O)C(=O)N[C@@H](CCCCN)C(=O)N2)NC(=O)[C@H](CSSC[C@@H](C(=O)N[C@@H](CCCCN)C(=O)N[C@@H](Cc2ccc(O)cc2)C(=O)N[C@H](C(=O)N[C@@H](Cc2ccccc2)C(N)=O)C(C)C)NC(=O)[C@H](Cc2c[nH]c4ccccc24)NC(=O)[C@H](CCCCN)NC(=O)[C@H](Cc2cnc[nH]2)NC(=O)[C@H]([C@@H](C)O)NC(=O)[C@H](CCCNC(=N)N)NC(=O)[C@H](CO)NC3=O)NC(=O)[C@H](CCCCN)NC(=O)[C@H](CC(=O)O)NC(=O)[C@H](CC(N)=O)NC(=O)[C@H](CC(=O)O)NC(=O)[C@@H]2CCCN2C1=O` [[Glu7]GpTx-1(1-34)] (H-DCLGFMEKCIPDNDKCCRPNLVCSRTHKWCKYVF-NH2; disulfide 2-17, 9-23, 16-30) has an IC50 (hNav1.7 [1]) of 880 nM, an IC50 (hNav1.5 [2]; IonWorks Quattro, use-dependent block, hNav1.5, read-out: IWQ Use Nav1.5) of 19100 nM and an IC50 (hNav1.5 [3]) of over 10000 nM. It also gave an IC50 (hNav1.3; use-dependent block, hNav1.3) of 1680 nM and an IC50 (hNav1.7 [4]) of 98 nM.
